Measured values reported in publication PMC4128473 (Bioorganic & medicinal chemistry, 2014).

Target: T1, hA3AR (Homo sapiens, UniProt P0DMS8)
T1 sequence (P0DMS8 1-318): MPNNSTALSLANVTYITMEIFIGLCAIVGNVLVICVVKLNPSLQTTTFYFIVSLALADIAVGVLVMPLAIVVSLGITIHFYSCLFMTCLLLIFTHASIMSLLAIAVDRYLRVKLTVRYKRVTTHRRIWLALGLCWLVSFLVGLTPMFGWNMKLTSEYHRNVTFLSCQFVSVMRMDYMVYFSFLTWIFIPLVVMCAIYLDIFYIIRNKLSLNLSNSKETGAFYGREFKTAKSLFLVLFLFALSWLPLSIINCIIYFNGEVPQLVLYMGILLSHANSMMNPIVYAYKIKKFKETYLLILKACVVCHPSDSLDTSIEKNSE
Type: cell-based
Conditions: compared to Cl-IB-MECA as reference full agonist

| functional behaviour at hA3AR (cAMP assay) | SMILES |
| --- | --- |
| inactive | COc1ccc(Cl)cc1CNc1ncnc2c1ncn2[C@@H]1OC[C@](O)(CO)[C@H]1O [10c, 1′-[N^6-(2-Methoxy-5-chlorobenzyl)-adenin-9-yl]-β-D-apio-D-furanose] |
| partial agonist | COc1ccc(Cl)cc1CNc1ncnc2c1ncn2[C@@H]1OC[C@@](O)(CO)[C@H]1O [11c, 1′-[N^6-(2-Methoxy-5-chlorobenzyl)adenin-9-yl]-α-D-apio-L-furanose] |
